In brackets after ≈: the same amount, converted by molar mass.

Data set [1] relates to Aspergillus flavus (FCBP-0064). Briefly: Antifungal disc diffusion assay. The data set is classed as cell-based. To be noted: Aspergillus flavus; 20 μg/disc. How it is done: (§1) The antifungal response to these chemical moieties was evaluated through a procedure designated by ([Zahra et al., 2017]). Amphotericin B (4 mg/mL DMSO) is used as + ve control and DMSO as-ve one (5 μL/disc). Sterile SDA-coated plates were used, on which 100 µL of suspension of spores for each strain (previously reaped-in-Tween-20 solution) was spread. Discs of sterile filter paper containing 5 µL of sample solution (4 mg/mL DMSO) were kept on plates and incubated for 2 days at 28°C. Zones of inhibition were recorded.
(§2) The Synthetic compound library was subjected to an antifungal assay using five different strains of Fungai, i.e., Fusarium solani (FCBP-0291), Aspergillus fumigatus (FCBP-66), Aspergillus flavus (FCBP-0064), Aspergillus niger (FCBP-0198) and Mucor species (FCBP-0300). Amphotericin B was the standard drug used. […] The outcomes are concise in Table 5.

Data set [2] has as its system Mucor species (FCBP-0300). Briefly: Antifungal disc diffusion assay. The data set is classed as cell-based. To be noted: Mucor; 20 μg/disc. How it is done:
as §1, §2

Data set [3] has as its system Aspergillus fumigatus (FCBP-66). Description: Antifungal disc diffusion assay. The class given is cell-based. The settings on record: Aspergillus fumigatus; 20 μg/disc. How it is done: as §1, §2
The test system of data set [4] is Fusarium solani (FCBP-0291). Briefly: Antifungal disc diffusion assay. The class given is cell-based. To be noted: Fusarium solani, 20 μg/disc; read-out: Zone of inhibition, F. solani. How it is done:
as §1, §2

For data set [5], the system named is Aspergillus niger (FCBP-0198). Briefly: Antifungal disc diffusion assay. The class given is cell-based. To be noted: Aspergillus niger; 20 μg/disc. How it is done: as §1, §2
Data set [6] can be described thus: in vivo. How it is done: The cytotoxic evaluation was accomplished using the decorum designed by ([Khan et al., 2011]). To a plate of 96 wells, artificial seawater and nauplii were added. Test samples were taken in wells (40, 20, 10, 5 μg/mL) after making up the final volume with seawater, the plates were left uncovered under the lamp, and after 24 h, the number of surviving larvae was calculated. For samples having ≥50% mortality, the median lethal conc was calculated using the table curve software, Doxorubicin was used as + ve control, and DMSO was the -ve. The percentage of killed organisms was found using the formula. Percentage Mortality=No of dead shrimps÷Total Number of Shrimps×100
The results of all the experiments were articulated as mean ± SD. Each test was performed in triplicate. TAC assay was analyzed by one-way analysis of variance (ANOVA) following DUNCAN’S test using the statistical package for social sciences 18 and p < 0.05 was considered as significant where appropriate. For samples having ≥50% mortality, the median lethal concentration (LC50) was calculated using the table curve software.
This evaluation test forms the basis for the bioactive scanning of compounds for their potential as anti-cancer moieties, to be investigated on a large scale ([Amanullah et al., 2012]). […] Similarities between Artemia salina and mammalian cells have been reported due to DNA-dependent RNA polymerases ([Birndorf et al., 1975]). These Schiff bases were investigated for their cytotoxic potential. […] Doxorubicin was used as the positive control.

The subject of data set [7] is Staphylococcus aureus (ATCC-6538). Description: Antibacterial assay, micro broth dilution. The class given is cell-based. The settings on record: ATCC6538, read-out: S. aureus MIC. The source says:
(§3) The micro broth dilution method was used to establish the antibacterial potential of test samples against Staphylococcus aureus (ATCC-6538), Bacillus subtilis (ATCC-6633), Escherichia coli (ATCC-25922), Klebsiella pneumoniae (ATCC-1705), and Pseudomonas aeruginosa (ATCC-15442) and for the resistant strains of MRSA Staphylococcus aureus, P. aeruginosa and Escherichia coli. The procedure used is described by ([Sarker et al., 2007]). Bacterial inoculum was formed under aseptic conditions keeping the density near 5 × 10^4 CFU/mL in pre-autoclaved nutrient broth. Test samples of an aliquot of 5 µL were shifted to labeled wells of 96 well plates, and after that addition of 195 µL of nutrient broth; was accomplished. After that, a 2-fold serial dilution of every sample was arranged to get final concentrations of 12.5 μg/mL. Then, with the help of a micropipette, 195 µL of bacterial culture of respective strains was poured into each well; further advancement was incubating of plates for 30 min at the temperature of 37°C. […] Incubation of plates was again carried out at 37°C for 1 day, absorbance was noted, and net change in turbidity was the difference between two values of absorbance.
(§4) Schiff base tri-azo compounds were investigated for antibacterial potential. […] 6.25 μg/mL for 5b and 5g, and the least, Table 4 3.12 μg/mL was for 5f. […] Substituents with electron-withdrawing attributes, e.g., -NO2, -Cl, -OH on the aromatic ring, assert a great impact on the antibacterial activity of synthetic compounds. It is also observed that an increase in the number of -OH groups tend to enhance the activity ([Hosamani and Shingalapur, 2011]). Due to the difference in cell-wall composition of Gram + ve and -ve bacteria, different compounds show different features towards the same micro-organism ([Goszczyn’ska et al., 2015]).

Data set [8] deals with Klebsiella pneumoniae (ATCC-1705). Briefly: Antibacterial assay, micro broth dilution. The data set is classed as cell-based. The settings on record: ATCC1705.
From the text: as §3, §4

Data set [9] has as its system Pseudomonas aeruginosa (ATCC-15442). Briefly: Antibacterial assay, micro broth dilution. The data set is classed as cell-based. The settings on record: ATCC15442.
From the text: as §3, §4

Data set [10] deals with Escherichia coli (ATCC-25922). Description: Antibacterial assay, micro broth dilution. The class given is cell-based. To be noted: ATCC25922, read-out: E. coli MIC.
From the text: as §3, §4

Data set [11] concerns resistant E.coli. Briefly: Antibacterial assay, resistant strains. The data set is classed as cell-based, Escherichia coli. To be noted: resistant strain.
From the text: as §3, §4

For data set [12], the system named is Escherichia coli (ATCC-25922). Briefly: Antibacterial assay, micro broth dilution. To be noted: 25 μg/mL. The data set is classed as cell-based. Further details: key: Active = Bacterial activity; --- = no activity.
Data set [13] has as its system MRSA. Briefly: Antibacterial assay, resistant strains. The class given is cell-based, Staphylococcus aureus. To be noted: 25 μg/mL; resistant strain.
The test system of data set [14] is resistant S. aureus. Description: Antibacterial assay, resistant strains. The data set is classed as cell-based, Staphylococcus aureus. The settings on record: resistant strain.
From the text: as §3, §4

Data set [15] relates to resistant P. aeruginosa. Briefly: Antibacterial assay, resistant strains. The class given is cell-based. The settings on record: resistant strain.
From the text: as §3, §4

Data set [16] has as its system Bacillus subtilis (ATCC-6633). Description: Antibacterial assay, micro broth dilution. The class given is cell-based. Further details: key to Antibacterial activity, Bacillus subtilis: Activity: Active = Bacterial activity; --- = no activity.
From the text: as §3, §4

Data set [17] concerns Staphylococcus aureus (ATCC-6538). Briefly: Antibacterial assay, micro broth dilution. Further details: key: Active = Bacterial activity; --- = no activity. The class given is cell-based. To be noted: 25 μg/mL.
Data set [18] has as its system Klebsiella pneumoniae (ATCC-1705). Description: Antibacterial assay, micro broth dilution. The class given is cell-based. Further details: key: Active = Bacterial activity; --- = no activity. The settings on record: 25 μg/mL.
For data set [19], the system named is MRSA. Description: Antibacterial assay, resistant strains. To be noted: Staphylococcus aureus, resistant strain. The data set is classed as cell-based.
From the text: as §3, §4

In data set [20] the test system is Pseudomonas aeruginosa (ATCC-15442). Description: Antibacterial assay, micro broth dilution. The class given is cell-based. To be noted: 25 μg/mL. Further details: key: Active = Bacterial activity; --- = no activity.
For data set [21], the system named is Streptomyces 85 E strains. Description: Protein kinase inhibition assay. The data set is classed as cell-based. To be noted: Sample Concentration = 20 μg/mL; Surfactin B 20 μg/mL. Further details: key: Active = Bacterial activity; --- = no activity. How it is done:
The protocol followed for this is mentioned ([Fatima et al., 2015]). To assess the test compound’s inhibitory potential, Streptomyces 85 E strains were used, which were refreshed in tryptone soya broth at 37 for 1 day. Spores from refreshed cultures were utilized to prepare the bacterial culture. 100 μg compound was loaded on 5 mm discs of filter paper. These were kept on sowed plates. DMSO-permeated discs were the -ve control. The incubation period was 7 days, and outcomes were stated as bald and clear zones of inhibition.
These synthetic products were evaluated to estimate the inhibitory potential for protein kinase of […] 85 E. Protein kinase is involved with the mycelium production of this species, so the growth patterns were observed as the bald zone. […] One of the propitious targets in cancer treatment is the inhibition of protein kinases. Protein phosphorylation by protein kinases at various residues regulates diverse biological processes, which may include apoptosis, proliferation and differentiation of cells. Deregulation at any step in early tumorigenesis may lead to cancer ([Yao et al., 2011]). Aerial hyphae formation in Streptomyces depends upon protein kinase activity; this scenario is exploited in this test; to inquire about these compounds’ kinase inhibition potential and to look at their anti-cancer potential. The advantage of using Streptomyces for kinase inhibition assay is its predisposition to a wide range of eukaryotic cells. Whole-cell assay of Streptomyces not only identifies the compound’s cytotoxic potential but also identifies signal transduction inhibitors for various activities, e.g., antitumor, anti-mycobacterial, and anti-infective ([Waters et al., 2002]). […] Activity with a bald zone of 10.5 mm and a clear zone of 7.5 mm, following is 5a with a bald zone of 9 mm and a clear zone of 6 mm, and for 5g, values are 7.5 and 6 mm, respectively. It means that these compounds have the potential for protein kinase inhibition as well as the toxicity of the compound.

Data set [22] has as its system Streptomyces 85 E strains. Briefly: Protein kinase inhibition assay. The class given is cell-based. The settings on record: Sample Concentration = 20 μg/mL; Surfactin B 20 μg/mL.

As for `C[C@@H]1[C@H](O)[C@@H](C)/C=C/C=C/C=C/C=C/C=C/C=C/C=C/[C@H](O[C@@H]2O[C@H](C)[C@@H](O)[C@H](N)[C@@H]2O)C[C@@H]2O[C@](O)(C[C@@H](O)C[C@@H](O)[C@H](O)CC[C@@H](O)C[C@@H](O)CC(=O)O[C@H]1C)C[C@H](O)[C@H]2C(=O)O` [Amphotericin B, reference compound], the zone of inhibition at 20 µg/disc in data set [1] was found to be 12 mm; in data set [2] it was 11.5 mm; in data set [3], 10 mm; in data set [4] it was 11.5 mm; in data set [5], 12.5 mm.
`COc1cccc2c1C(=O)c1c(O)c3c(c(O)c1C2=O)C[C@@](O)(C(=O)CO)C[C@@H]3O[C@H]1C[C@H](N)[C@H](O)[C@H](C)O1` [Doxorubicin, reference compound] had an LC50 at 24 h in data set [6] of 5.7 µg/mL (≈ 10.5 µM).
With `O=C(O)c1cn(C2CC2)c2cc(N3CCNCC3)c(F)cc2c1=O` [Ciprofloxacin, reference compound], the MIC in data set [7], in [8], in data set [9], in data set [10], in data set [11] (Escherichia coli) and in data set [14] (Staphylococcus aureus) was 3.12 µg/mL (≈ 9.42 µM) each time. Further, the MIC in data set [15] (Pseudomonas aeruginosa) is 3.12 µg/mL (≈ 9.42 µM); in data set [16] (Bacillus subtilis, ATCC6633), 3.12 µg/mL (≈ 9.42 µM); in data set [19], 3.12 µg/mL (≈ 9.42 µM). The “Antibacterial activity, resistant E.coli: Activity” value in data set [11] (25 μg/mL) is on record as “Active”. Also, the “Antibacterial activity, E. coli: Activity” value in data set [12] was “Active”. Further, the “Antibacterial activity, MRSA: Activity” value in [13] is “Active”. Moreover, in data set [14] (25 μg/mL), the “Antibacterial activity, resistant S. aureus: Activity” value is “Active”. Besides, the “Antibacterial activity, resistant P. aeruginosa: Activity” value in data set [15] (25 μg/mL) is recorded as “Active”. Besides, in data set [16] (25 μg/mL), the “Antibacterial activity, Bacillus subtilis: Activity” value is recorded as “Active”. In addition, the “Antibacterial activity, S. aureus: Activity” value in data set [17] is given as “Active”. In addition, in data set [18], the “Antibacterial activity, Klebsiella pneumoniae: Activity” value is listed as “Active”. Further, the “Antibacterial activity, Pseudomonas aeruginosa: Activity” value in data set [20] is “Active”.
Surfactin B [reference compound]: the Clear zone entry in data set [21] is on record as “---”. The molecule also returned a Bald zone in data set [22] of 22.3 mm.

Values taken from paper PMC10009108, “Design, synthesis and screening of indole acetic acid-based tri-azo moieties as antioxidants, anti-microbial and cytotoxic agents” (Frontiers in Pharmacology, 2023).
